Reference: PubChem BioAssay AID608 (Sanford-Burnham Center for Chemical Genomics, 2007)
The source made the active and inactive calls. How the calls were made is not given here.

Molecular target: Peptidyl-prolyl cis-trans isomerase FKBP1A (Homo sapiens) (UniProt P62942)
Assay: FKBP12 binders, biophysical, NMR detection (AID 608)
Details: NMR binding, purified FKBP12

Sequence of Peptidyl-prolyl cis-trans isomerase FKBP1A (Homo sapiens) (P62942 whole entry, looked up): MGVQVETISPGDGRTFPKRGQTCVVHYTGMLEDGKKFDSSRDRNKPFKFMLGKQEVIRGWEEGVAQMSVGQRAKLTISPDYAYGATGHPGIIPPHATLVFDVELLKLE

Compound | Kd
CC(C)Oc1ccc(C2CC(=O)NNC2=O)cc1 (stereo not drawn) | > 4 mM (inactive)
CCOC(=O)CN1C(=O)c2ccccc2C1=O | > 4 mM (inactive)
CN(C(=O)NC1CCS(=O)(=O)C1)C1CCCCC1 (stereo not drawn) | > 4 mM (inactive)
CC(O)C(=O)N/N=C/c1cccs1 (stereo not drawn) | > 4 mM (inactive)
O=C(NN1CCOCC1)c1cccs1 | > 4 mM (inactive)
NC(=O)c1ccccc1N=Cc1ccco1 | > 4 mM (inactive)
S=c1[nH]nc(-c2cccnc2)n1Cc1ccccc1 | > 4 mM (inactive)
Nc1ccc2c(C(F)(F)F)cc(=O)oc2c1 | > 4 mM (inactive)
COc1ccc(CC(=O)c2ccc(O)cc2O)cc1 | > 4 mM (inactive)
C=C1[C@H]2CC[C@@]3(C)[C@H](c4ccoc4)OC(=O)C[C@]13O[C@H]1C[C@H](O)C(C)(C)[C@H](CC(=O)OC)[C@]12C | > 4 mM (inactive)
Cc1cc(OCC(=O)N2CCOCC2)cc(C)c1Cl | inactive
O=C(Nc1ccon1)c1ccc(Br)o1 | > 4 mM (inactive)
CCc1nnsc1C(=O)Nc1nccs1 | > 4 mM (inactive)
Nc1cc(=O)[nH]c(=O)n1-c1ccccc1 | > 4 mM (inactive)
COC(=O)Cc1cccc(OC)c1 | > 4 mM (inactive)
NC(=O)CCn1ncc2ccccc21 | > 4 mM (inactive)
O=c1sc2ccccc2n1CN1CCOCC1 | > 4 mM (inactive)
CC(=O)NC(C)C12CC3CC(CC(C(=O)O)(C3)C1)C2 (stereo not drawn) | > 4 mM (inactive)
COc1ccc(C)cc1S(N)(=O)=O | > 4 mM (inactive)
NC1=NC(=O)/C(=C\c2ccccc2)S1 | > 4 mM (inactive)
O=C1Nc2ccccc2C12OCCO2 | > 4 mM (inactive)
CCCOn1nnnc1-c1ccccc1 | > 4 mM (inactive)
Cc1cc(C(=O)Nc2ccccn2)no1 | > 4 mM (inactive)
O=C(/C=C1\SC(=O)NC1=O)NCc1ccccc1 | > 4 mM (inactive)

Compound | Kd
COc1ccc(C2(CN)CCOCC2)cc1OC | > 4 mM (inactive)
CC(CCC(=O)O)[C@H]1CCC2C3C[C@H](O)[C@@H]4C[C@H](O)CC[C@]4(C)C3CC[C@@]21C (stereo partly drawn) | > 4 mM (inactive)
NC(=O)c1ccc(N=Cc2ccc[nH]2)cc1 | > 4 mM (inactive)
CC(C)Oc1ccc(NC(N)=O)cc1 | > 4 mM (inactive)
O=C(NCc1ccccn1)c1ccc(Br)s1 | > 4 mM (inactive)
Cn1c(=O)[nH]c(=O)c2c1ncn2CCN1CCCCC1 | > 4 mM (inactive)
COC(=O)C(O)c1ccccc1 (stereo not drawn) | > 4 mM (inactive)
O=C(NC1CC1)c1ccccc1[N+](=O)[O-] | > 4 mM (inactive)
Nc1[nH]c(=S)ncc1S(=O)(=O)c1ccccc1 | > 4 mM (inactive)
O=C(O)c1ccc2ccccc2n1 | > 4 mM (inactive)
O=C(O)CCC1NCC2CC1CN1CCCCC21 (stereo not drawn) | > 4 mM (inactive)
OCc1ccc(N2CCOCC2)nc1 | > 4 mM (inactive)
Cc1noc(C)c1C(=O)NCc1cccs1 | > 4 mM (inactive)
CCCCCCCCCCCCCCCCCCOCC(O)CO (stereo not drawn) | > 4 mM (inactive)
CCc1ccc(C(=O)N2CCCC2)s1 | > 4 mM (inactive)
O=C1O[C@H](C(O)CO)C(O)=C1O (stereo partly drawn) | > 4 mM (inactive)
O=C(O)C1CSC(c2ccc(Cl)cc2)N1 (stereo not drawn) | > 4 mM (inactive)
NN1C(=O)/C(=C/c2ccc(O)c(O)c2)SC1=S | > 4 mM (inactive)
O=C1CCCC2C3CC(CN12)[C@@H]1CCCCN1C3 (stereo partly drawn) | > 4 mM (inactive)
CC(C)/C(O)=C1/C(=O)O[C@@H](c2ccoc2)[C@]2(C)C(O)[C@@H](O)[C@@]34OC5(C)OC67CC(C)(C(O)[C@]6(O)[C@@H](O)[C@]3(O5)C12)[C@H](CC(=O)O)[C@]74C (stereo partly drawn) | > 4 mM (inactive)
COC(=O)c1cn(C(=O)OC)c2ccccc12 | > 4 mM (inactive)
COc1ccccc1NC(=O)NC(N)=O | > 4 mM (inactive)
Cc1ccc(NS(=O)(=O)N2CCCCC2)cc1Cl | inactive
COc1ccc2c(Cl)c(C(=O)N3CC(C)OC(C)C3)sc2c1 (stereo not drawn) | > 13.6 mM (inactive)

Compound | Kd
COc1c2c(c(CC=C(C)C)c3oc(=O)c(-c4ccc(O)cc4)c(O)c13)OC(C)(C)C=C2 | > 4 mM (inactive)
CC(C)CCCC(C)C1CCC2C3=CC[C@H]4C[C@@H](O)CC[C@]4(C)C3CC[C@@]21C (stereo partly drawn) | > 4 mM (inactive)
Cc1cc([N+](=O)[O-])cc[n+]1[O-] | > 4 mM (inactive)
Cn1nnc2cc(C(=O)N3CCSCC3)ccc21 | > 4 mM (inactive)
CNC(=O)c1cc(S(=O)(=O)N(C)C)ccc1Cl | > 4 mM (inactive)
COc1ccccc1NC(N)=S | > 4 mM (inactive)
CC1CN(Cc2ccccn2)CCC1=O (stereo not drawn) | > 4 mM (inactive)
NC(=O)CN1CC(c2ccccc2)CC1=O (stereo not drawn) | > 4 mM (inactive)
C=CCCCCCCCCCCCC(O)CC(O)COC(C)=O (stereo not drawn) | > 4 mM (inactive)
Cc1cc(C(=O)N2CCN(c3ccccn3)CC2)no1 | > 4 mM (inactive)
CC(=O)Nc1ccc2c(c1)CCC2=O | > 4 mM (inactive)
CC(=O)Nc1ccc2c(c1)CCCC2=O | > 4 mM (inactive)
CCc1c(C)n([O-])c2c([n+]1=O)CCC2 | > 4 mM (inactive)
O=C(NCc1ccccc1Cl)c1cnn2cccnc12 | > 4 mM (inactive)
CC(C)NC(=O)c1nc2ccccc2s1 | > 4 mM (inactive)
Cc1c(C)[n+](=O)c(-c2cccs2)c(C)n1[O-] | > 4 mM (inactive)
Cc1nn2c(=O)c(NC(=O)c3ccccc3)cnc2s1 | > 4 mM (inactive)
Cc1cc(C(=O)Nc2sc(C)c(C)c2C#N)c(C)o1 | > 4 mM (inactive)
CC(C)CNc1cc(=O)n(C)c(=O)n1C | > 4 mM (inactive)
COC(=O)C1CCN(c2ccc(Cl)nn2)CC1 | > 4 mM (inactive)
Cc1ccc(CN2CCNC(=O)C2CC(=O)O)o1 (stereo not drawn) | > 4 mM (inactive)
COC(=O)[C@@H]1C(O)CC[C@H]2CN3CCc4c([nH]c5ccccc45)[C@@H]3C[C@@H]21 (stereo partly drawn) | > 4 mM (inactive)
O=C(O)c1ncoc1-c1ccccc1 | > 4 mM (inactive)
Cn1c(O)c(/C=C2\C=CC=N2)c(=O)[nH]c1=O | > 4 mM (inactive)

Compound | Kd
NC1=NC(=O)/C(=C\c2cccnc2)S1 | > 4 mM (inactive)
O=C1CSC(=O)N1CN1CCCC1 | > 4 mM (inactive)
Cc1ccc(N2C(=O)C3C4C=CC(O4)C3C2=O)cc1 (stereo not drawn) | > 4 mM (inactive)
O=C(NN1C(=O)CSC1=S)c1ccccc1 | > 4 mM (inactive)
Cc1occc1C(=O)Nc1sccc1C(N)=O | > 4 mM (inactive)
O=C(c1ccco1)N1CCN(c2ccc(Cl)cc2)CC1 | > 4 mM (inactive)
O=C(Nc1ccccn1)c1cc(-n2cnnc2)ccc1Cl | > 4 mM (inactive)
CC(=O)Oc1cc(-c2coc3cc(OC(C)=O)c(OC(C)=O)c(OC(C)=O)c3c2=O)cc(OC(C)=O)c1OC(C)=O | > 4 mM (inactive)
Cc1cccc(-n2c(N)cc(=O)[nH]c2=S)c1C | > 4 mM (inactive)
O=C(O)C1CC(=O)N(C2Cc3ccccc3C2)C1 (stereo not drawn) | > 4 mM (inactive)
CC[C@@]1(O)C[C@H](O[C@H]2C[C@H](N(C)C)[C@H](O)[C@H](C)O2)c2c(cc3c(c2O)C(=O)c2c(O)cccc2C3=O)[C@H]1C(=O)OC | > 4 mM (inactive)
CCOC(=O)C1C(C=C(C)C)C1(C)C (stereo not drawn) | > 4 mM (inactive)
Cc1nc2sc3c(c2c(=N)n1N)CC(C)(C)OC3 | > 4 mM (inactive)
CS(=O)(=O)N1CCN(C(=O)c2ccccc2)CC1 | > 4 mM (inactive)
CC1=C(C(N)=O)C(c2ccccc2)NC(=O)N1 (stereo not drawn) | > 4 mM (inactive)
COc1ccccc1/C=C/CN1CCOCC1 | > 4 mM (inactive)
Nc1nc(NCc2ccco2)nn1-c1ccccc1 | > 4 mM (inactive)
CCOC(=O)c1ccc(F)cc1F | > 4 mM (inactive)
O=[n+]1c2c(n([O-])c3ccccc31)CCCC2 | > 4 mM (inactive)
CCn1ccc(C(=O)Nc2nccs2)n1 | > 4 mM (inactive)
Cc1ccc(C(=O)N2CCC(C(=O)O)CC2)cc1 | > 4 mM (inactive)
Cc1nnc(NCc2cccnc2)[nH]c1=O | > 4 mM (inactive)
O=c1c[n+]([O-])c2ccccc2n1OCc1ccccn1 | > 4 mM (inactive)
Cc1nc2ccc(C(=O)O)cc2[nH]1 | > 4 mM (inactive)

Compound | Kd
Cc1ccc(S(=O)(=O)CC(=O)N2CCOCC2)cc1 | 0.095 mM
CC(=O)O[C@@H]1CC2C(C)(C)[C@H](O)C=C[C@]2(C)C2CC[C@@]3(C)[C@H](c4ccoc4)OC(=O)C4OC43[C@@]21C (stereo partly drawn) | > 4 mM (inactive)
COc1cc(O)c(C)c(O)c1 | > 4 mM (inactive)
Cc1ccc(C(=O)Nc2nnc(-c3ccncc3)s2)o1 | > 4 mM (inactive)
CCSc1nnc2[nH]c(=O)cc(C)n12 | > 4 mM (inactive)
COc1cccc(NC(=O)c2nc3ncccn3n2)c1 | > 4 mM (inactive)
COc1ccc(C(C)=O)c(OC)c1 | > 4 mM (inactive)
CC1(C)N=C2C(=N)C=CC=C2N1O | > 4 mM (inactive)
Cc1ccc2c(c1)CCCN2C(=O)c1ccncc1 | > 4 mM (inactive)
O=C(O)c1sccc1-n1cccc1 | > 4 mM (inactive)
COC(=O)CC1SC(=O)NC1=O (stereo not drawn) | > 4 mM (inactive)
Cc1ccc(S(=O)(=O)CC(N)=O)cc1 | > 4 mM (inactive)
COC(=O)c1sccc1S(=O)(=O)N1CCCC1 | > 4 mM (inactive)
NC(=O)c1ccc(C(N)=O)c(-c2ccccc2)c1 | > 4 mM (inactive)
CC(=O)Oc1c(C)c(C)c2c(c1C)CCC(C)(CCCC(C)CCCC(C)CCCC(C)C)O2 (stereo not drawn) | > 4 mM (inactive)
c1ccc(-c2nsc(N3CCCNCC3)n2)cc1 | > 4 mM (inactive)
CC1=C(C(N)=O)C(c2cccs2)C(C(N)=O)=C(C)N1 | > 4 mM (inactive)
CC(=O)NC1C(=O)Nc2c(C)cc(C)cc21 (stereo not drawn) | > 4 mM (inactive)
N#Cc1sc2nc3c(c(-c4cccnc4)c2c1N)CCC3 | > 4 mM (inactive)
C=C(C)[C@@H]1[C@H]2OC(=O)[C@@H]1[C@]1(O)C[C@H]3O[C@]34C(=O)O[C@H]2[C@]14C | > 4 mM (inactive)
NC(=O)c1ccccc1NC(=O)C1CCCO1 (stereo not drawn) | > 4 mM (inactive)
Cc1scc(C(=O)Nc2ccon2)c1-c1ccccc1 | > 4 mM (inactive)
